From patent publication US7186519B2 (priority 2002, dated 2007)
Entries after “also recorded” stand apart in the source; their conditions may differ.

How the values were obtained:
[1] = tested on: CT43 cells; type: cell-based, Chinese hamster
[2] = tested on: 25RA cells; type: cell-based, Chinese hamster
[3] = tested on: CT43 cells expressing NPC1-GFP; test: Fluorescence microscopy of BCθ binding in NPC1-GFP transfected cells; conditions: CT43 cells expressing NPC1-GFP exposed to U18666A
Experimental: To examine the effect of NPC1 expression on intracellular BCθ binding to cholesterol in CT43 cells, a construct comprising a GFP-tagged NPC1 protein (NPC1-GFP) was prepared and introduced into CT43 cells by transient transfection. […] After BCθ binding, cells containing NPC1-GFP were viewed in the red channel to detect the BCθ fluorescence signal or in the green channel to detect the NPC1-GFP fluorescence signal. The two fluorescence signals were then merged to examine their degree of overlap.
2-hydroxypropyl-β-cyclodextrin (SIGMA™-Aldrich, St. Louis, Mo.) was added to culture medium using well-known methods (Rothblat, et al. (1999) supra). U18666A was provided to the cells using standard conditions (Lange, et al. (2000) supra; Liscum and Faust (1989) supra).
Transient transfection of NPC1-GFP was performed in CT43 cells using FUGENE™ 6 according to manufacturer's instructions (Roche, Indianapolis, Ind.). Transfected cells were imaged within 2–3 days of transfection.
Cells were grown on glass coverslips in six-well plates and processed for fluorescence studies. […]

In the case of 2-hydroxypropyl-b-cyclodextrin [hpCD], the “Effect on BCθ fluorescence signal (intracellular cholesterol)” value [1] is reported as “both cell lines retained most of the BCθ fluorescence signals; also recorded: retained much of the signal”.
`CCCCC[C@@H](O)[C@H]1C(=O)O[C@H](C)[C@@H](O)/C=C/C=C/C=C/C=C/C=C(\C)[C@@H](O)C[C@H](O)C[C@H](O)C[C@H](O)C[C@H](O)C[C@H](O)C[C@@H]1O` [filipin] was tested, and the “Binding to intracellular cholesterol” value [2] was “not in 25RA cells” and the “Binding to intracellular cholesterol” value [1] was “able to bind intracellular cholesterol in CT43 cells”.
`CCN(CC)CCO[C@H]1CC[C@@]2(C)C(=CC[C@@H]3[C@@H]2CC[C@]2(C)C(=O)CC[C@@H]32)C1` [U18666A] was tested, and the “Effect on binding of BCθ to intracellular cholesterol” value [3] was “binding of BCθ to intracellular cholesterol persisted”.
